Assay results reported in patent US12180187B2, “1-phenyl-5-azinylpyrazolyl-3-oxyalkyl acids and their use for controlling unwanted plant growth” (BAYER AKTIENGESELLSCHAFT, priority 2019, dated 2024).

Key:
DIGSA [1] = test: Pre-emergence action against DIGSA, 1280 g/ha; type: in vivo, Digitaria sanguinalis; details: visual scoring after about 3 weeks vs untreated controls, 100% = plants have died, 0% = like control plants
From the text: (§1) 1. Pre-Emergence Herbicidal Effect and Crop Plant Compatibility a) Seeds of mono- and dicotyledonous weed plants are placed in plastic pots in sandy loam soil (doubly sown with one species each of mono- or dicotyledonous weed plants per pot) and covered with soil. The compounds of the invention, formulated in the form of wettable powders (WP) or as emulsion concentrates (EC), are then applied onto the surface of the covering soil as aqueous suspension or emulsion with addition of 0.5% additive at a water application rate equivalent to 600 litres per hectare. After the treatment, the pots are placed in a greenhouse and kept under good growth conditions for the trial plants. After about 3 weeks, the effect of the preparations is scored visually in comparison with untreated controls as percentages. For example, 100% activity=the plants have died, 0% activity=like control plants. 1. Pre-Emergence Effectiveness Tables 1 to 12 below show the effects of selected compounds of the general formula (I) according to Tables 1 and 2 on various harmful plants and at an application rate corresponding to 1280 g/ha, which were obtained by the experimental procedure mentioned above.

LOLRI = test: Pre-emergence action against LOLRI, 1280 g/ha; type: in vivo, Lolium rigidum; details: visual scoring after about 3 weeks vs untreated controls, 100% = plants have died, 0% = like control plants
From the text: as §1

POAAN [2] = test: Pre-emergence action against POAAN, 1280 g/ha; type: in vivo, Poa annua; details: visual scoring after about 3 weeks vs untreated controls, 100% = plants have died, 0% = like control plants
From the text: as §1

SETVI [3] = test: Pre-emergence action against SETVI, 1280 g/ha; type: in vivo, Setaria viridis; details: visual scoring after about 3 weeks vs untreated controls, 100% = plants have died, 0% = like control plants
From the text: as §1

AMARE [4] = test: Pre-emergence action against AMARE, 1280 g/ha; type: in vivo, Amaranthus retroflexus; details: scored visually after about 3 weeks vs untreated controls (100% = plants have died)
From the text: as §1

MATIN [5] = test: Pre-emergence action against MATIN, 1280 g/ha; type: in vivo, Tripleurospermum inodorum (Matricaria inodora); details: scored visually after about 3 weeks vs untreated controls (100% = plants have died)
From the text: as §1

STEME [6] = test: Pre-emergence action against STEME, 1280 g/ha; type: in vivo, Stellaria media; details: scored visually after about 3 weeks vs untreated controls (100% = plants have died)
From the text: as §1

VERPE [7] = test: Pre-emergence action against VERPE, 1280 g/ha; type: in vivo, Veronica persica; details: scored visually after about 3 weeks vs untreated controls (100% = plants have died)
From the text: as §1

ALOMY [8] = test: Post-emergence action against ALOMY, 1.28 kg/ha; type: in vivo, Alopecurus myosuroides; details: dosage 1280 g/ha, visual rating about 3 weeks after treatment vs untreated controls
Experimental: (§2) • a) Seeds of mono- and dicotyledonous weed plants are placed in plastic pots in sandy loam soil (twin sowing with one species each of mono- or dicotyledonous weed plants per pot), covered with soil and cultivated in a greenhouse under controlled growth conditions. 2 to 3 weeks after sowing, the test plants are treated at the one-leaf stage. The compounds of the invention, formulated in the form of wettable powders (WP) or as emulsion concentrates (EC), are applied to the green parts of the plants as aqueous suspension or emulsion with addition of 0.5% additive at a water application rate equivalent to 600 litres per hectare. After the test plants have been kept in the greenhouse under optimum growth conditions for about 3 weeks, the activity of the preparations is rated visually in comparison to untreated controls. For example, 100% activity=the plants have died, 0% activity=like control plants. As shown by the results, compounds of the general formula (I) of the invention, in post-emergence treatment, have very good herbicidal efficacy (90% to 100% herbicidal action) against harmful plants such as Abutilon theophrasti, Digitaria sanguinalis, Echinochloa crus-galli, Matricaria inodora, Poa annua, at an application rate of 1.28 kg of active substance per hectare.

DIGSA [9] = test: Post-emergence action against DIGSA, 1.28 kg/ha; type: in vivo, Digitaria sanguinalis; details: dosage 1280 g/ha, visual rating about 3 weeks after treatment vs untreated controls
Experimental: as §2

ECHCG [10] = test: Post-emergence action against ECHCG, 1.28 kg/ha; type: in vivo, Echinochloa crus-galli; details: dosage 1280 g/ha, visual rating about 3 weeks after treatment vs untreated controls
Experimental: as §2

POAAN [11] = test: Post-emergence action against POAAN, 1.28 kg/ha; type: in vivo, Poa annua; details: dosage 1280 g/ha, visual rating about 3 weeks after treatment vs untreated controls
Experimental: as §2

SETVI [12] = test: Post-emergence action against SETVI, 1.28 kg/ha; type: in vivo, Setaria viridis; details: dosage 1280 g/ha, visual rating about 3 weeks after treatment vs untreated controls
Experimental: as §2

ABUTH = test: Post-emergence action against ABUTH, 1.28 kg/ha; type: in vivo, Abutilon theophrasti; details: dosage 1280 g/ha, visual rating about 3 weeks after treatment vs untreated controls (100% = plants died)
Experimental: as §2

MATIN [13] = test: Post-emergence action against MATIN, 1.28 kg/ha; type: in vivo, Tripleurospermum inodorum (Matricaria inodora); details: dosage 1280 g/ha, visual rating about 3 weeks after treatment vs untreated controls (100% = plants died)
Experimental: as §2

VERPE [14] = test: Post-emergence action against VERPE, 1.28 kg/ha; type: in vivo, Veronica persica; details: dosage 1280 g/ha, visual rating about 3 weeks after treatment vs untreated controls (100% = plants died)
Experimental: as §2

ECHCG [15] = test: Pre-emergence action against ECHCG, 1280 g/ha; type: in vivo, Echinochloa crus-galli; details: visual scoring after about 3 weeks vs untreated controls, 100% = plants have died, 0% = like control plants
From the text: as §1

AMARE [16] = test: Post-emergence action against AMARE, 1.28 kg/ha; type: in vivo, Amaranthus retroflexus; details: dosage 1280 g/ha, visual rating about 3 weeks after treatment vs untreated controls (100% = plants died)
Experimental: as §2

STEME [17] = test: Post-emergence action against STEME, 1.28 kg/ha; type: in vivo, Stellaria media; details: dosage 1280 g/ha, visual rating about 3 weeks after treatment vs untreated controls (100% = plants died)
Experimental: as §2

ALOMY [18] = test: Pre-emergence action against ALOMY, 1280 g/ha; type: in vivo, Alopecurus myosuroides; details: visual scoring after about 3 weeks vs untreated controls, 100% = plants have died, 0% = like control plants
From the text: as §1

| Structure (SMILES) | Pre-emergence action against DIGSA (DIGSA [1]) | Pre-emergence action against LOLRI (LOLRI) | Pre-emergence action against POAAN (POAAN [2]) | Pre-emergence action against SETVI (SETVI [3]) | Pre-emergence action against AMARE (AMARE [4]) | Pre-emergence action against MATIN (MATIN [5]) | Pre-emergence action against STEME (STEME [6]) | Pre-emergence action against VERPE (VERPE [7]) | Post-emergence action against ALOMY (ALOMY [8]) | Post-emergence action against DIGSA (DIGSA [9]) | Post-emergence action against ECHCG (ECHCG [10]) | Post-emergence action against POAAN (POAAN [11]) | Post-emergence action against SETVI (SETVI [12]) | Post-emergence action against ABUTH (ABUTH) | Post-emergence action against MATIN (MATIN [13]) | Post-emergence action against VERPE (VERPE [14]) | Pre-emergence action against ECHCG (ECHCG [15]) | Post-emergence action against AMARE (AMARE [16]) | Post-emergence action against STEME (STEME [17]) | Pre-emergence action against ALOMY (ALOMY [18]) |
| --- | --- | --- | --- | --- | --- | --- | --- | --- | --- | --- | --- | --- | --- | --- | --- | --- | --- | --- | --- | --- |
| O=C(O)C1CCN(C(=O)COc2nn(-c3ccccc3F)c(-c3cncc(F)c3)c2Br)CC1 [Example X-038] | 90% | 90% | 100% | 100% | 100% | 90% | 90% | 90% | 90% | 90% | 90% | 100% | 90% | 90% | 100% | 100% |  |  |  |  |
| CCOC(=O)COc1nn(-c2cc(F)c(F)cc2F)c(-c2ccc(F)nc2)c1Cl [VII-009] |  | 100% | 100% | 100% | 100% | 100% | 100% | 90% |  |  | 100% | 100% | 90% | 90% | 100% | 90% | 90% | 100% | 100% |  |
| CCOC(=O)COc1nn(-c2ccc(F)cc2F)c(-c2ccc(F)nc2)c1F [VII-027] | 90% | 100% | 90% | 90% | 90% | 90% | 100% |  | 100% | 100% |  |  | 90% |  |  | 90% | 90% | 90% |  |  |
| C#Cc1c(OCC(=O)OCC)nn(-c2ccccc2F)c1-c1ccc(F)nc1 [VII-088] | 100% | 100% | 100% | 100% | 100% | 100% | 100% | 100% |  | 100% | 100% | 100% | 90% | 90% | 100% |  | 100% | 100% | 90% | 100% |
